As a reminder, the Kd is the equilibrium constant for the complex coming apart.

The structures appear in SMILES notation.

One assay addresses T1, RHPN2 (RHPN2_PDZ, PDZ7) (Homo sapiens, UniProt Q8IUC4).
T1 construct: PDZ domain, 99 residues
T1 sequence (Q8IUC4 515-593 limits assumed): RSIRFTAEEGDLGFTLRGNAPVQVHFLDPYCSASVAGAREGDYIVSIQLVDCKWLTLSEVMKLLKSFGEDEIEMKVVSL
As to the kind of experiment: 1H-15N SOFAST-HMQC NMR titration. It is filed as binding. The text has this: 1H-15N SOFAST-HMQC NMR titration on RHPN2 (RHPN2_PDZ, PDZ7) | PDZ7|−|++|++|−|−|−|−|+|−|−

The target of assay [1] is T2, mouse ZO-1 (mZO1-PDZ1) (Mus musculus, UniProt P39447).
T2 construct: gene Tjp1
T2 sequence (P39447 18-110): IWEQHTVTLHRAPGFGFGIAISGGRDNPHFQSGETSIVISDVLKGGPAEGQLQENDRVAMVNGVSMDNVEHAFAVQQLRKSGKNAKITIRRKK
The experiment in a line: 1H-15N SOFAST-HMQC NMR titration; V92E-R96Q mutant abolishes binding.

For assay [2], the target named is T3, Harmonin (Harmonin_PDZ2, PDZ8) (Homo sapiens, UniProt Q9Y6N9).
T3 construct: gene USH1C; PDZ2 domain, 100 residues
T3 sequence (Q9Y6N9 201-300 limits assumed): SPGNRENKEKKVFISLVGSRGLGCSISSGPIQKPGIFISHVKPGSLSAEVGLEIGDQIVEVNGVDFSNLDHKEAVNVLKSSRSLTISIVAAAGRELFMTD
The experiment in a line: 1H-15N SOFAST-HMQC NMR titration. The format is binding. An excerpt:
1H-15N SOFAST-HMQC NMR titration on Harmonin (Harmonin_PDZ2, PDZ8) | PDZ8|−|+|−|−|−|−|−|++|−|−

The target of assay [3] is T4, InaDL (InaDL_PDZ6, PDZ13) (Homo sapiens, UniProt Q8NI35).
T4 construct: gene PATJ; PDZ6 domain, 113 residues
T4 sequence (Q8NI35 1058-1170 limits assumed): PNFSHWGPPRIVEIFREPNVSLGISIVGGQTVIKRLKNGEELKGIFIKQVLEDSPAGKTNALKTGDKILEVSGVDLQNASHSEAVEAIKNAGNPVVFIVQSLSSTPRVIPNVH
As to the kind of experiment: 1H-15N SOFAST-HMQC NMR titration. The format is binding.

The target of assay [4] is T2, mouse ZO-1 (mZO1-PDZ1). The experiment in a line: 1H-15N SOFAST-HMQC NMR titration. The format is binding.

With `CC(=O)O[C@H]1C[C@@]2(C)[C@@H](C[C@@H](O)[C@H]3[C@@]4(C)CC[C@@H](O)[C@@H](C)[C@@H]4CC[C@@]32C)/C1=C(\CCC=C(C)C)C(=O)O` [FUA, fusidic acid], the “1H-15N SOFAST-HMQC NMR titration” value on RHPN2 (RHPN2_PDZ, PDZ7) is on record as “PDZ7|−|++|++|−|−|−|−|+|−|−”.

Regarding `O=C(O)Cc1ccccc1Nc1c(Cl)cccc1Cl` [DIF, 2-[(2,6-dichlorophenyl)amino] benzene-acetic acid], at mouse ZO-1 (mZO1-PDZ1) [1], the Kd worked out at 1400 µM. In addition, the “1H-15N SOFAST-HMQC NMR titration” value is “PDZ7|−|++|++|−|−|−|−|+|−|−” on RHPN2 (RHPN2_PDZ, PDZ7); “PDZ8|−|+|−|−|−|−|−|++|−|−” in assay [2]; “PDZ13|n. e.|++|+|−|−|−|−|++|−|−” in assay [3].

Consider `O=C(O)c1ccccc1Nc1cccc(C(F)(F)F)c1` [FLF, 2-[[3-(trifluoro-methyl)phenyl]amino] benzoic acid], for which the “1H-15N SOFAST-HMQC NMR titration” value on RHPN2 (RHPN2_PDZ, PDZ7) was “PDZ7|−|++|++|−|−|−|−|+|−|−”; in assay [2] it was “PDZ8|−|+|−|−|−|−|−|++|−|−”; in assay [3], “PDZ13|n. e.|++|+|−|−|−|−|++|−|−”. Binding at mouse ZO-1 (mZO1-PDZ1) [4] was put at a Kd of 750 µM.

Source of the values: publication PMC6270271, “Accidental Interaction between PDZ Domains and Diclofenac Revealed by NMR-Assisted Virtual Screening” (Molecules, 2013).
